Measurements: PubChem BioAssay (NCI)
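Values below derive from 48-hour exposures of cells grown in 96-well plates, with endpoints linearly interpolated between the two concentrations bracketing the appropriate inhibition level. TGI is the concentration that stops growth completely.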

How the values were obtained:
Assay in all cases: NCI-60 cell line screen, 48 h
[1] = tested on: CAKI-1 renal
[2] = tested on: SW-620 colon
[3] = tested on: M14 melanoma
[4] = tested on: NCI-H460 lung
[5] = tested on: SK-MEL-2 melanoma
[6] = tested on: UACC-62 melanoma
[7] = tested on: MDA-MB-231 breast
[8] = tested on: IGROV1 ovarian
[9] = tested on: EKVX NSCLC
[10] = tested on: MOLT-4 leukemia
[11] = tested on: MCF7 breast
[12] = tested on: SK-MEL-5 melanoma
[13] = tested on: NCI-H226 lung
[14] = tested on: OVCAR-8 ovarian
[15] = tested on: MDA-N
[16] = tested on: MDA-MB-435
[17] = tested on: SK-OV-3 ovarian
[18] = tested on: T-47D breast
[19] = tested on: NCI-H522 lung
[20] = tested on: RPMI-8226 leukemia
[21] = tested on: NCI/ADR-RES ovarian
[22] = tested on: SK-MEL-28 melanoma
[23] = tested on: HCC-2998 colon
[24] = tested on: SF-295 CNS
[25] = tested on: U251 CNS
[26] = tested on: HCT-116 colon
[27] = tested on: CCRF-CEM leukemia
[28] = tested on: ACHN renal
[29] = tested on: HOP-92 NSCLC
[30] = tested on: DU-145 prostate
[31] = tested on: K-562 leukemia
[32] = tested on: SF-539 CNS
[33] = tested on: SN12C renal
[34] = tested on: SNB-19 CNS
[35] = tested on: A549 NSCLC
[36] = tested on: A498 renal
[37] = tested on: COLO 205 colon
[38] = tested on: SF-268 CNS
[39] = tested on: HOP-62 NSCLC
[40] = tested on: SNB-75 CNS
[41] = tested on: MALME-3M melanoma
[42] = tested on: KM12 colon
[43] = tested on: BT-549 breast
[44] = tested on: HL-60(TB) leukemia
[45] = tested on: PC-3 prostate
[46] = tested on: OVCAR-3 ovarian
[47] = tested on: LOX IMVI melanoma
[48] = tested on: UACC-257 melanoma
[49] = tested on: HT29 colon
[50] = tested on: NCI-H23 lung
[51] = tested on: HS 578T breast
[52] = tested on: TK-10 renal
[53] = tested on: UO-31 renal
[54] = tested on: OVCAR-5 ovarian
[55] = tested on: HCT-15 colon
[56] = tested on: 786-0 renal
[57] = tested on: SR leukemia
[58] = tested on: RXF 393 renal

Structure (SMILES): CC(=O)OC1CC(OC2C(O)CC(OC3C(O)CC(OC4CCC5(C)C(CCC6C5CCC5(C)C(C7=CC(=O)OC7)C(O)CC65O)C4)OC3C)OC2C)OC(C)C1OC1OC(CO)C(O)C(O)C1O (stereo not given)
- TGI [1]: 461 nM
- TGI [2]: 1450 nM
- TGI [3]: 2310 nM
- TGI [4]: 491 nM
- TGI [5]: 2160 nM
- TGI [6]: 1980 nM
- TGI [7]: 6420 nM
- TGI [8]: 3580 nM
- TGI [9]: 803 nM
- TGI [10]: > 100000 nM
- TGI [11]: 15800 nM
- TGI [12]: 1060 nM
- TGI [13]: 2660 nM
- TGI [14]: 1560 nM
- TGI [15]: 1770 nM
- TGI [16]: 2080 nM
- TGI [17]: 2100 nM
- TGI [18]: 3320 nM
- TGI [19]: 1200 nM
- TGI [20]: 5700 nM
- TGI [21]: 755 nM
- TGI [22]: 3610 nM
- TGI [23]: 4090 nM
- TGI [24]: 1430 nM
- TGI [25]: 1450 nM
- TGI [26]: 910 nM
- TGI [27]: > 100000 nM
- TGI [28]: 942 nM
- TGI [29]: 3170 nM
- TGI [30]: 684 nM
- TGI [31]: > 100000 nM
- TGI [32]: 421 nM
- TGI [33]: 1320 nM
- TGI [34]: 2190 nM
- TGI [35]: 244 nM
- TGI [36]: 2130 nM
- TGI [37]: 2130 nM
- TGI [38]: 2480 nM
- TGI [39]: 483 nM
- TGI [40]: 2970 nM
- TGI [41]: 1850 nM
- TGI [42]: 1940 nM
- TGI [43]: 1260 nM
- TGI [44]: 577 nM
- TGI [45]: 1550 nM
- TGI [46]: 1240 nM
- TGI [47]: 1140 nM
- TGI [48]: 1880 nM
- TGI [49]: 1760 nM
- TGI [50]: 424 nM
- TGI [51]: > 100000 nM
- TGI [52]: 2140 nM
- TGI [53]: 1460 nM
- TGI [54]: 1720 nM
- TGI [55]: 1160 nM
- TGI [56]: 943 nM

Structure (SMILES): COc1c2c(cc3occ(-c4ccc(CC=C(C)C)cc4)c(=O)c13)OC(C)(C)C=C2
- TGI [1]: > 100000 nM
- TGI [2]: > 100000 nM
- TGI [3]: > 100000 nM
- TGI [5]: 62700 nM
- TGI [6]: > 100000 nM
- TGI [7]: > 100000 nM
- TGI [8]: > 100000 nM
- TGI [9]: > 100000 nM
- TGI [10]: 52100 nM
- TGI [11]: > 100000 nM
- TGI [12]: 48900 nM
- TGI [13]: > 100000 nM
- TGI [14]: > 100000 nM
- TGI [15]: > 100000 nM
- TGI [16]: > 100000 nM
- TGI [17]: > 100000 nM
- TGI [18]: > 100000 nM
- TGI [19]: > 100000 nM
- TGI [20]: 50300 nM
- TGI [21]: > 100000 nM
- TGI [22]: > 100000 nM
- TGI [23]: > 100000 nM
- TGI [24]: > 100000 nM
- TGI [25]: > 100000 nM
- TGI [57]: > 100000 nM
- TGI [26]: > 100000 nM
- TGI [27]: > 100000 nM
- TGI [28]: > 100000 nM
- TGI [30]: > 100000 nM
- TGI [31]: > 100000 nM
- TGI [33]: > 100000 nM
- TGI [34]: > 100000 nM
- TGI [35]: > 100000 nM
- TGI [58]: > 100000 nM
- TGI [37]: > 100000 nM
- TGI [38]: > 100000 nM
- TGI [39]: > 100000 nM
- TGI [40]: > 100000 nM
- TGI [41]: > 100000 nM
- TGI [42]: > 100000 nM
- TGI [43]: > 100000 nM
- TGI [44]: 46400 nM
- TGI [45]: > 100000 nM
- TGI [46]: > 100000 nM
- TGI [47]: > 100000 nM
- TGI [48]: > 100000 nM
- TGI [49]: > 100000 nM
- TGI [50]: > 100000 nM
- TGI [51]: > 100000 nM
- TGI [52]: > 100000 nM
- TGI [53]: > 100000 nM
- TGI [54]: > 100000 nM
- TGI [55]: > 100000 nM
- TGI [56]: > 100000 nM
